From patent US20260356841A1, “HETEROCYCLIC PYRIDINONE COMPOUNDS AS TRIGGERING RECEPTOR EXPRESSED ON MYELOID CELLS 2 AGONISTS AND METHODS OF USE” (Vigil Neuroscience, Inc., priority 2023, published 2026)

Each compound was assayed against T1, human TREM2 (Homo sapiens, UniProt Q9NZC2) (assay: TREM2 agonist potency by cellular phosphorylation of Spleen Tyrosine Kinase (Syk), AlphaLisa, HEK293T-hTREM2 cells). Conditions: hTREM2 EC50 Data (HEK293 Cells); Syk phosphorylation, AlphaLisa; read-out: hTREM2 EC50.
T1 construct: expressed in transfected cells; host or cells: HEK293T (HEK293T-hTREM2 cells)
T1 sequence (Q9NZC2 19-230): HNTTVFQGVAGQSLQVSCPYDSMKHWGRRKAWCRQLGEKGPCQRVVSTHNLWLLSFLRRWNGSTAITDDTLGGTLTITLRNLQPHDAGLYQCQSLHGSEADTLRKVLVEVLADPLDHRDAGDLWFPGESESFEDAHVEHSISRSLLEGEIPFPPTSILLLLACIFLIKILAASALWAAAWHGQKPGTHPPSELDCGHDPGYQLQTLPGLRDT
T1 sequence (O43914 22-113 partner): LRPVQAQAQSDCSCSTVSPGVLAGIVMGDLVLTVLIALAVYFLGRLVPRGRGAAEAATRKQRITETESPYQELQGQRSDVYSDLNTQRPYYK
Format: cell-based
Summary of the method: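 HEK293T cells co-expressing human TREM2 and DAP12, plated 20–24 h before use. Compounds applied 45 min at room temperature in assay buffer, then cells lysed and phospho-Syk quantified by AlphaLisa. Percent activation from a standard curve; EC50 from a four-parameter variable-slope fit.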

| EC50 [nM] | SMILES |
| --- | --- |
| 100 to 500 | Cc1cnc2nc([C@H]3CCO[C@@H](c4ccc(=O)[nH]c4)C3)nc(C34CC(C(F)(F)F)(C3)C4)c2n1 [Example 197, 5-((2R,4S)-4-(6-methyl-4-(3-(trifluoromethyl)bicyclo[1.1.1]pentan-1-yl)pteridin-2-yl)tetrahydro-2H-pyran-2-yl)pyridin-2(1H)-one] |
| 100 to 500 | Cc1cnc2nc([C@H]3CCO[C@@H](c4ccc(=O)n(C)c4)C3)nc(C34CC(C(F)(F)F)(C3)C4)c2n1 [Example 198, 1-methyl-5-((2R,4S)-4-(6-methyl-4-(3-(trifluoromethyl)bicyclo[1.1.1]pentan-1-yl)pteridin-2-yl)tetrahydro-2H-pyran-2-yl)pyridin-2(1H)-one] |
| < 100 | [2H]C([2H])([2H])c1nc2nc([C@H]3CCO[C@@H](c4ccc(=O)n(C5CC5)c4)C3)nc(C34CC(C(F)(F)F)(C3)C4)c2nc1C([2H])([2H])[2H] [Example 201, 5-((2R,4S)-4-(6,7-bis(methyl-d3)-4-(3-(trifluoromethyl)bicyclo[1.1.1]pentan-1-yl)pteridin-2-yl)tetrahydro-2H-pyran-2-yl)-1-cyclopropylpyridin-2 (1H)-one] |
| 100 to 500 | CN(C)c1nc2nc([C@H]3CCO[C@@H](c4ccc(=O)n(C)c4)C3)nc(C34CC(C(F)(F)F)(C3)C4)c2n1C [Example 202, 5-((2R,4S)-4-(8-(dimethylamino)-7-methyl-6-(3-(trifluoromethyl)bicyclo[1.1.1]pentan-1-yl)-7H-purin-2-yl)tetrahydro-2H-pyran-2-yl)-1-methylpyridin-2 (1H)-one] |
| < 100 | COn1cc([C@H]2C[C@@H](c3nc(C45CC(C(F)(F)F)(C4)C5)c4nc(C)c(C)nc4n3)CCO2)ccc1=O [Example 203, 5-[(2R,4S)-4-[6,7-dimethyl-4-[3-(trifluoromethyl)-1-bicyclo[1.1.1]pentanyl]pteridin-2-yl]tetrahydropyran-2-yl]-1-methoxy-pyridin-2-one] |
| > 500 | Cc1nc2nc(N3C[C@@H](C)O[C@@H](c4ccc(=O)n(C)c4)C3)nc(C34CC(C(N)=O)(C3)C4)c2nc1C [Example 204, 3-[6,7-dimethyl-2-[(2R,6S)-2-methyl-6-(1-methyl-6-oxo-3-pyridyl)morpholin-4-yl]pteridin-4-yl]bicyclo[1.1.1]pentane-1-carboxamide] |
| < 100 | Cc1nc2nc(N3C[C@@H](C)O[C@@H](c4ccc(=O)n(C)c4)C3)nc(C34CC(C#N)(C3)C4)c2nc1C [Example 205, 3-[6,7-dimethyl-2-[(2R,6S)-2-methyl-6-(1-methyl-6-oxo-3-pyridyl)morpholin-4-yl]pteridin-4-yl]bicyclo[1.1.1]pentane-1-carbonitrile] |
| < 100 | C=CCN(CC=C)n1cc([C@H]2C[C@@H](c3nc(C45CC(C(F)(F)F)(C4)C5)c4nc(C)c(C)nc4n3)CCO2)ccc1=O [Example 206, 1-(diallylamino)-5-[(2R,4S)-4-[6,7-dimethyl-4-[3-(trifluoromethyl)-1-bicyclo[1.1.1]pentanyl]pteridin-2-yl]tetrahydropyran-2-yl]pyridin-2-one] |
| < 100 | C=CCNn1cc([C@H]2C[C@@H](c3nc(C45CC(C(F)(F)F)(C4)C5)c4nc(C)c(C)nc4n3)CCO2)ccc1=O [Example 207, 1-(allylamino)-5-[(2R,4S)-4-[6,7-dimethyl-4-[3-(trifluoromethyl)-1-bicyclo[1.1.1]pentanyl]pteridin-2-yl]tetrahydropyran-2-yl]pyridin-2-one] |
| < 100 | CC(C)=Nn1cc([C@H]2C[C@@H](c3nc(C45CC(C(F)(F)F)(C4)C5)c4cc(C(F)(F)F)c(C)nc4n3)CCO2)ccc1=O [Example 208, 5-((2R,4S)-4-(7-methyl-6-(trifluoromethyl)-4-(3-(trifluoromethyl)bicyclo[1.1.1]pentan-1-yl)pyrido[2,3-d]pyrimidin-2-yl)tetrahydro-2H-pyran-2-yl)-1-(propan-2-ylideneamino)pyridin-2 (1H)-one] |
